# Source: article PMC5472279, “Genetic, structural, and chemical insights into the dual function of GRASP55 in germ cell Golgi remodeling and JAM-C polarized localization during spermatogenesis” (PLoS Genetics, 2017)
# Tests used:
# [1] = molecular target: T1, His-GRASP55 PDZ12 (Mus musculus, UniProt Q99JX3); assay: differential scanning fluorimetry (SYPRO orange); type: binding; conditions: 4 μM protein, 50 μM Graspin, PBS, 2.5% DMSO
# T1 construct: gene Gorasp2; tandem PDZ domains PDZ12 aa 2-208, N-terminal 6His tag, E. coli BL21(DE3)
# Excerpt: differential scanning fluorimetry (SYPRO orange) on His-GRASP55 PDZ12 | […], but not the JAM-C peptide, decreased the GRASP55 melting temperature
# [2] = molecular target: T2, GST-GRASP55 FL (Mus musculus, UniProt Q99JX3); assay: HTRF competition with biotinylated JAM-B C-terminal 19-mer peptide; type: binding
# T2 construct: gene Gorasp2; full-length aa 2-451, N-terminal GST tag, E. coli BL21(DE3)
smiles,measurement,setting,value
CCCCCn1c(SCCCn2c(Br)nc3c2c(=O)[nH]c(=O)n3C)nc2c1c(=O)[nH]c(=O)n2C [Graspin],dTm,[1],"Graspin, but not the JAM-C peptide, decreased the GRASP55 melting temperature"
same,IC50,[2],8.4 µM
